Target: T1, OTR (Homo sapiens, UniProt P30559)
T1 construct: expressed in transfected cells; host or cells: OTR/HEK293 stably transfected cell line
T1 sequence (P30559 1-389): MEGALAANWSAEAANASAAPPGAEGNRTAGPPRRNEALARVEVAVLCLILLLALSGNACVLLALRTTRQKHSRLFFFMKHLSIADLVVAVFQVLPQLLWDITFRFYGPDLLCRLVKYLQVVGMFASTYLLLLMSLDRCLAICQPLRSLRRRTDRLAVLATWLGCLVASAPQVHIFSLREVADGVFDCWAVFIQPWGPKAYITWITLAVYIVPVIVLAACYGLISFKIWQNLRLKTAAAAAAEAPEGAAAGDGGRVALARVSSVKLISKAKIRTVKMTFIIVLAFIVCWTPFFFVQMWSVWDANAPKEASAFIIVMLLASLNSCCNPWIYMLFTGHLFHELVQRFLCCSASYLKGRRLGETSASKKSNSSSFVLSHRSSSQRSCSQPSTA
Assay: Ca2+ mobilization in cells stably expressing OTR (FLIPR, antagonist mode)
Type: cell-based
Details: OTR/HEK293 stably transfected cell line
From the text: Test Example 1. Determination of the Effect of the Compound of the Present Disclosure on Ca^2+ Mobilization in Cells Stably Expressing OTR
To measure the antagonistic effect of the compound of the present disclosure on OTR activity expressed in the OTR/HEK293 stably transfected cell line.
• DMEM medium (Invitrogen, 11965) • F12 medium (Invitrogen, 11765) • Fetal bovine serum (Excell, FSP500) • Geneticin (Invitrogen, 10131) • Penicillin/Streptomycin (Invitrogen, SV30010) • Fluo-4 Direct kit (Invitrogen, F10471) • 384-well cell plate (Greiner, 781090) • 384-well compound plate (Greiner, 781280)
• FLIPR instrument (Molecular Device) • EHCO instrument (Labcyte) • Cell counter (Beckman, Vi-cell XR)
The cultured cells were washed twice with pre-heated DPBS and digested with appropriate amount of trypsin at 37° C. for 1 minute, and then appropriate amount of culture medium was added to terminate digestion. The cells were centrifuged at 1000 rpm for 5 minutes. The supernatant was gently discarded without disturbing the cell pellet at the bottom. The cells were resuspended in culture medium and 1 mL was taken out for cell counting and viability assessment using Vi-CELL™. The cells were diluted to 1×10^6 cells/mL (20,000 cells/20 μL) with culture medium, seeded into a 384-well cell plate and incubated at 37° C. with 5% CO2 for 16-20 h.
Formulation of 250 mM Probenecid solution: according to the kit instructions, 1 mL of FLIPR buffer salt solution was added to 77 mg of probenecid, prepared fresh just before use. Formulation of Fluo-4 Direct™ (2×, 8 μM) loading buffer: according to the kit instructions, the required amount of Fluo-4 Direct™ was taken out and thawed in advance, 10 mL of FLIPR buffer salt solution and 0.2 mL of 250 mM Probenecid solution were added to each tube, and the mixture was vortexed in the dark for >5 minutes, prepared fresh just before use.
Preparation of agonist reference compound plate: the agonist was diluted 3-fold in 10 points using ECHO, and 750 nL was transferred to the corresponding compound plate using ECHO.
Preparation of reference and test compound plates: the test compound was diluted 3-fold in 10 points with ECHO, and 900 nL was transferred to the corresponding compound plate; the reference compound was diluted 3-fold in 10 points with assay buffer salt solution, and 30 μL was transferred to the compound plate.
30 μL of assay buffer salt solution was added to the corresponding compound plate, and the mixture was centrifuged at 1000 rpm for 1 minute.
The cell plate prepared the day before was taken out of the incubator, and 20 μL of 2×Fluo-4 Direct™ buffer was added to each well, with a total volume of 40 μL.
The plate was incubated in an incubator at 37° C. with 5% CO2 for 50 minutes, and then placed at room temperature for 10 minutes.
The compound plate, cell plate, and pipette tips were placed into the instrument.
For the agonist reference compound plate: the FLIPR instrument software was run, 10 μL of the pre-determined concentration of agonist reference compound was added to the cell plate following the preset protocol, and the fluorescence signal was read. After reading, the data were exported to calculate the EC80 for each cell line, and the agonist at 6×EC80 concentration was prepared.
For the compound plate: the FLIPR instrument software was run, 10 μL of the pre-determined concentration of test compound and the reference compound were added to the cell plate following the preset protocol, and the fluorescence signal was read. 10 μL of the reference compound agonist at 6×EC80 concentration was added to the cell plate, and the fluorescence signal was read. For antagonist detection of the compound, the data were exported using the “Max-Min” and “Read 1 to Maximum allowed” methods in the software, and the data were fitted using Prism.

Compound	IC50 [nM]
CO/N=C1\C[C@@H](CO)N(C(=O)c2ccc(-c3cccc(C#N)c3C)cc2C)C1 [Example A0244, 3-(4-[(2S,4E)-2-(Hydroxymethyl)-4-(methoxyimino)pyrrolidine-1-carbonyl]-3-methylphenyl)-2-methylbenzonitrile]	42.8
CO/N=C1\C[C@@H](CO)N(C(=O)c2ccc(-c3cccc(C#N)c3C)cc2OC)C1 [Example A0245]	58.1
CO/N=C1\C[C@@H](CO)N(C(=O)c2ccc(-c3cccc(C#N)c3C)c(OC)c2)C1 [Example A0248, (S,E)-4′-(2-(Hydroxymethyl)-4-(methoxyimino)pyrrolidine-1-carbonyl)-2′-methoxy-2-methyl-[1,1′-biphenyl]-3-carbonitrile]	57.8
CO/N=C1/CCN(C(=O)c2ccc(-c3cccc(C#N)c3C)cc2)[C@H](CO)C1 [Example A0249, (S,Z)-4′-(2-(Hydroxymethyl)-4-(methoxyimino)piperidine-1-carbonyl)-2-methyl-[1,1′-biphenyl]-3-carbonitrile]	3060
CO/N=C1/C[C@@H](CO)N(C(=O)c2cnc(-c3cccc(C#N)c3C)cn2)C1 [Example A0251, (S,Z)-3-(5-(2-(Hydroxymethyl)-4-(methoxyimino)pyrrolidine-1-carbonyl)pyrazin-2-yl)-2-methylbenzonitrile]	363
CO/N=C1\C[C@@H](CNC(C)=O)N(C(=O)c2ccc(-c3ccccc3C)cc2)C1 [Example C0003, (S, E)-N-((4-(Methoxyimino)-1-(2′-methyl-[1,1′-biphenyl]-4-carbonyl)pyrrolidin-2-yl)methyl)acetamide]	2330
CO/N=C1\C[C@@H](CNC(=O)OC)N(C(=O)c2ccc(-c3ccccc3C)cc2)C1 [Example C0004, Methyl (S, E)-((4-(methoxyimino)-1-(2′-methyl-[1,1′-biphenyl]-4-carbonyl)pyrrolidin-2-yl)methyl)carbamate]	628
CO/N=C1\C[C@@H](CNC(=O)CO)N(C(=O)c2ccc(-c3ccccc3C)cc2)C1 [Example C0005, (S, E)-2-Hydroxy-N-((4-(methoxyimino)-1-(2′-methyl-[1,1′-biphenyl]-4-carbonyl)pyrrolidin-2-yl)methyl)acetamide]	1790
CO/N=C1/C[C@@H](CNC(=O)OC)N(C(=O)c2ccc(-c3ccccc3C)cc2)C1 [Example C0007, Methyl (S, Z)-((4-(methoxyimino)-1-(2′-methyl-[1,1′-biphenyl]-4-carbonyl)pyrrolidin-2-yl)methyl)carbamate]	534
CO/N=C1/C[C@@H](CNC(=O)CO)N(C(=O)c2ccc(-c3ccccc3C)cc2)C1 [Example C0008, (S, Z)-2-Hydroxy-N-((4-(methoxyimino)-1-(2′-methyl-[1,1′-biphenyl]-4-carbonyl)pyrrolidin-2-yl)methyl)acetamide]	1010
CO/N=C1/C[C@@H](CO)N(C(=O)c2cnc(-c3ccccc3C)cn2)C1 [Example C0013, (S, Z)-(2-(Hydroxymethyl)-4-(methoxyimino)pyrrolidin-1-yl)(5-(o-tolyl)pyrazin-2-yl)methanone]	853
CO/N=C1/C[C@@H](CO)N(C(=O)c2ccc(-c3ccccc3C)cn2)C1 [Example C0015, (S, Z)-(2-(Hydroxymethyl)-4-(methoxyimino)pyrrolidin-1-yl)(5-(o-tolyl)pyridin-2-yl)methanone]	888
CO/N=C1/C[C@@H](COCCO)N(C(=O)c2ccc(-c3ccccc3C)cc2)C1 [Example C0017, (S, Z)-(2-((2-Hydroxyethoxy)methyl)-4-(methoxyimino)pyrrolidin-1-yl)(2′-methyl-[1,1′-biphenyl]-4-yl)methanone]	140
CO/N=C1\C[C@@H](COCCO)N(C(=O)c2ccc(-c3ccccc3C)cc2)C1 [Example C0018, (S, E)-(2-((2-Hydroxyethoxy)methyl)-4-(methoxyimino)pyrrolidin-1-yl)(2′-methyl-[1,1′-biphenyl]-4-yl)methanone]	545
CO/N=C1/C[C@@H](CO)N(C(=O)c2cnc(-c3ccccc3C)s2)C1 [Example C0030, (S, Z)-(2-(Hydroxymethyl)-4-(methoxyimino)pyrrolidin-1-yl)(2-(o-tolyl)thiazol-5-yl)methanone]	1820
CO/N=C1\CN(C(=O)c2ccc(-c3ccccc3C)cc2)[C@@]2(CCNC2=O)C1 [Example C0039, (S, Z)-3-(Methoxyimino)-1-(2′-methyl-[1,1′-biphenyl]-4-carbonyl)-1,7-diazaspiro[4.4]nonan-6-one]	295
CO/N=C1/C[C@@H](CO)N(C(=O)c2ccc(-c3cccc4c3CCC4)cc2)C1 [Example C0051, (S, Z)-(4-(2,3-Dihydro-1H-inden-4-yl)phenyl)(2-(hydroxymethyl)-4-(methoxyimino)pyrrolidin-1-yl)methanone]	115
CO/N=C1\C[C@@H](CO)N(C(=O)c2ccc(-c3cccc(C#N)c3C)cc2)C1 [Example C0057, (S, E)-4′-(2-(Hydroxymethyl)-4-(methoxyimino)pyrrolidine-1-carbonyl)-2-methyl-[1,1′-biphenyl]-3-carbonitrile]	82.9
CO/N=C1/C[C@@H](CO)N(C(=O)c2cc(C(F)(F)F)c(-c3cccc(C)c3C)cn2)C1 [Example C0071, (S, Z)-(5-(2,3-Dimethylphenyl)-4-(trifluoromethyl)pyridin-2-yl)(2-(hydroxymethyl)-4-(methoxyimino)pyrrolidin-1-yl)methanone]	237
CO/N=C1/C[C@@H](CO)N(C(=O)c2cc(=O)n(-c3cccc(C)c3C)cn2)C1 [Example C0077, (S, Z)-3-(2,3-Dimethylphenyl)-6-(2-(hydroxymethyl)-4-(methoxyimino)pyrrolidine-1-carbonyl)pyrimidin-4(3H)-one]	673
CO/N=C1/C[C@@H](CO)N(C(=O)c2ncc(-c3cccc(C)c3C)cc2OC)C1 [Example C0081, (S, Z)-(5-(2,3-Dimethylphenyl)-3-methoxypyridin-2-yl)(2-(hydroxymethyl)-4-(methoxyimino)pyrrolidin-1-yl)methanone]	129
CO/N=C1/C[C@@H](CO)N(C(=O)c2ccc(-c3cccc(C)c3C)c(C(F)(F)F)n2)C1 [Example C0085, (S, Z)-(5-(2,3-Dimethylphenyl)-6-(trifluoromethyl)pyridin-2-yl)(2-(hydroxymethyl)-4-(methoxyimino)pyrrolidin-1-yl)methanone]	161
CO/N=C1/C[C@@H](CO)N(C(=O)c2ncc(-c3cccc(C)c3C)c(C(F)(F)F)n2)C1 [Example C0087, (S, Z)-(5-(2,3-Dimethylphenyl)-4-(trifluoromethyl)pyrimidin-2-yl)(2-(hydroxymethyl)-4-(methoxyimino)pyrrolidin-1-yl)methanone]	176
CO/N=C1/C[C@@H](CO)N(C(=O)c2ccc(-c3ccnc(C#N)c3C)cc2)C1 [Example C0091, (S, Z)-4-(4-(2-(Hydroxymethyl)-4-(methoxyimino)pyrrolidine-1-carbonyl)phenyl)-3-methylpicolinonitrile]	279
CO/N=C1/C[C@@H](CO)N(C(=O)c2ccc(-c3cc(C#N)ccc3C)cc2)C1 [Example C0095, (S, Z)—4′-(2-(Hydroxymethyl)-4-(methoxyimino)pyrrolidine-1-carbonyl)-6-methyl-[1,1′-biphenyl]-3-carbonitrile]	1260

— patent publication US20260248763A1 (BIO GENUINE (SHANGHAI) BIOTECH CO., LTD, priority 2023, published 2026)
